Where “and” joins values, the source holds several entries; their conditions need not be identical. Equal values may be shown once.
Key:
[1] = system: Factor VII; experiment: In vivo mouse Factor VII siRNA knockdown with lipid nanoparticles; set-up: species or system C57BL/6 mice; conditions: intravenous, mice, 48 hours; for Bioactivity: percentage in vivo Factor VII knockdown: dose 0.03 mg/kg
Description: The first pair of numbers denotes the number of carbons in the ester, including the carbonyl, for L1 and L2; the pair of numbers in the parenthesis denotes the number of carbons in each branch of the branched alkyl, R1 or if R2 is also branched, R1/R2 (an asterisk denotes a double bond); the number of carbons in R3 is given; and the last line denotes the substitution for R4 and R5. The ATX number is given for reference herein. Calculated Log D values (c-Log D) and calculated pKa (c-pKa) values are given, as well as measured pKa in parenthesis (measured in the Formulation milieu). The c-Log D and c-pKa values are generated by ACD Labs Structure Designer v12.0. Bioactivity is percentage in vivo Factor VII knockdown at a dose of 0.03 mg/kg, unless otherwise designated.
Using a liver-directed in vivo screen of the liposome libraries, a series of compounds were tested that facilitate high levels of siRNA mediated gene silencing in hepatocytes, the cells comprising the liver parenchyma. Factor VII, a blood-clotting factor, is a suitable target gene for assaying functional siRNA delivery to liver. Because this factor is produced specifically in hepatocytes, gene silencing indicates successful delivery to parenchyma, as opposed to delivery to the cells of the reticulo-endothelial system (e.g., Kupffer cells). Furthermore, Factor VII is a secreted protein that can be readily measured in serum, obviating the need to euthanize animals. Silencing at the mRNA level can be readily determined by measuring levels of protein. This is because the protein's short half-life (2-5 hour). Compositions with siRNA directed to […] were Formulated with the lipid, and comparator sample phosphate-buffered saline (PBS). Female C57BL/6 mice (6-8 week old) were used for FVII siRNA knockdown (KD) experiments.
All Formulations were administered intravenously via tail vein injection at a dose of 0.03 and 0.1 mg/kg at a dosing volume of […]. Terminal blood collection was performed via cardiac puncture under 2% isoflurane at 48 hours after Formulation injections. Blood was collected into 0.109 M citrate buffer tube and processed by centrifugation at 1200 G for 10 min. Plasma was collected and Factor VII protein levels were analyzed by chromogenic assay (Biophen FVII, Aniara Corporation). A standard curve was constructed using samples from PBS-injected mice and relative Factor VII expression was determined by comparing treated groups to untreated PBS control.

[2] = Measured pKa of cationic lipids in LNP or micellar formulations by TNS fluorescence; format: physicochemical; conditions: for pKa / (pKa) measured pKa: measured in the Formulation milieu, TNS fluorescence, 1 mM total lipids; for Δ measured pKa vs ATX-0002: change on shortening the ester
Method: pKa of cationic lipids in LNP or micellar Formulations were measured by the procedure of Jayaraman, 2012, Angew. Chem. Int. Ed., 51:8529-33, hereby incorporated by reference. Lipid micelles or LNPs are diluted to 1 mM total lipids in universal buffer with a pH range between 3 and 12 in presence of 0.06 mg/mL 6-(p-toluidino)-2-naphthalenesulfonic acid sodium salt (TNS) reagent (Sigma Aldrich), a pH sensitive fluorescence probe. The anionic TNS molecule fluoresces when associated with the surface of positively charged membranes but is not fluorescent when free in solution, allowing measurement of pKa. The TNS signal is measured on a spectral plate reader. The TNS signal is plotted as function of the pH and analyzed using a non-linear (Boltzman) to determine the pKa.
Reagents used in the assay include • Hepes free acid, CAS: 7365-45-9 (VWR, 0511-1KG or equivalent) • MES, HPLC grade: (Sigma 105228-100G or equivalent) • Ammonium acetate, HPLC grade: (Sigma 90335-100 mL or equivalent) • Sodium chloride, HPLC grade (VWR EM-MX0475-1 or equivalent) • TNS (Sigma-Aldrich T9792-250 mg or equivalent) • Hydrochloric acid • DMSO • DPBS without calcium and magnesium (GE, SH30028.02 or equivalent) • H2O, HPLC grade (OmniSolv, WX0004-1 or equivalent)
To prepare a stock solution of Universal Buffer (UB) in a polystyrene sterile storage bottle, prepare 1 L using the following table.
Reagents are sterile filtered through a 0.2 μm filter. Preparation of UB solution includes adding 5 mL of 1 M HCl to a 350 mL stock solution.
To prepare a pH ladder, centrifuge tubes (50 mL) with 20 mL UB buffer are used. (pH ˜3) and differing amounts of 2 N NaOH. Stock solutions of TNS at 1 mg/mL in DMSO. 60 μL of TNS at 1 mg/mL is added to 940 μL water to reach a working solution concentration of 0.06 mg/mL. Five test samples, 1 mL of LNP sample in PBS at 1 mM total lipid, and 1 reference sample are analyzed per plate. Samples at different pH values are prepared in wells in which 25 μL of 0.06 mg/mL TNS is added. 15 μL of test samples is added per well. The microplate is incubated for 15 minutes at room temperature in the dark. TNS template can be used to format data from the plate reader. Perform non-linear (Boltzman) regression analysis of the samples in Origin Pro 8 or equivalent software.

[3] = system: mouse epo mRNA; experiment: In vivo EPO mRNA stability after injection of lipid encapsulated mouse epo mRNA; set-up: species or system Balb/c mice; conditions: 0.03 and 0.1 mg/kg intravenous, 6 hours after injection, mice
Method: Levels of mRNA in plasma were measured and compared following injection of nanoparticles comprising different cationic lipids. Female Balb/c mice (6-8 week old) were used for evaluation of plasma erythropoietin (epo) levels in vivo following injection of lipid encapsulated mouse epo mRNA. All Formulations were administered intravenously via tail vein injection at a dose of 0.03 and 0.1 mg/kg at a dosing volume of 5 ml/kg. Terminal blood collection was performed via cardiac puncture under 2% isoflurane at 6 hours after Formulation injections. Blood was collected into 0.109 M citrate buffer tube and processed by centrifugation at 5000 rpm for 10 minutes. Serum was collected and epo mRNA levels were analyzed. Results are shown at FIG. 17.

SMILES | Bioactivity: percentage in vivo Factor VII knockdown [1] | pKa [2] | Factor VII knockdown activity compared with ATX-002 (FIG. 18) ([1]; both at 0.03 and 0.1 mg/kg) | Δ measured pKa vs ATX-0002 [2] | epo mRNA levels in serum compared with ATX-0002 (FIG. 17) [3] | (pKa) measured pKa [2]
CCCCCC/C=C\COC(=O)CCCCCCCN(CCCC(=O)OC(CCCCCC)CCCCCC)C(=O)SCCN(C)C | 63 percentage | 5.61 | – | – | – | –
CCCCCC/C=C\COC(=O)CCCCCCCN(CCCC(=O)OC(CCCCCCC)CCCCCCC)C(=O)SCCN(C)C | 73 percentage | 5.38 | – | – | – | –
CCCCCC/C=C\COC(=O)CCCCCN(CCCCCC(=O)OC(CCCCCCC)CCCCCCC)C(=O)SCCN(C)C | 91 percentage | 5.93 | – | – | – | –
CCC/C=C/CCC(CC/C=C/CCC)OC(=O)CCCCCN(CCCCCC(=O)OC/C=C\CCCCCC)C(=O)SCCN(C)C | 82 percentage | 5.94 | – | – | – | –
CCCCCC/C=C\COC(=O)CCCCCN(CCCCCC(=O)OC(CCCCCCCC)CCCCCCCC)C(=O)SCCN(C)C | 85 percentage | 5.82 | – | – | – | –
CCCCCC/C=C\COC(=O)CCCCCN(CCCCCC(=O)OC(CCCCCCC)CCCCCCC)C(=O)SCCCN(CC)CC | 95 percentage | 6.45 | – | – | – | –
CCCCCC/C=C\COC(=O)CCCCCCN(CCCCCCC(=O)OC(CCCCCC)CCCCCC)C(=O)SCCN(C)C | 66 percentage | 5.67 | – | – | – | –
CCC/C=C/CCC(CC/C=C/CCC)OC(=O)CCCCCCN(CCCCCCC(=O)OC/C=C\CCCCCC)C(=O)SCCN(C)C | 67 percentage | 5.68 | – | – | – | –
CCCCCC/C=C\COC(=O)CCCCCCCN(CCCCCCCC(=O)OC(CCCC)CCCC)C(=O)SCCN(C)C | 71 percentage | 6.22 | – | – | – | –
CCCCCC/C=C\COC(=O)CCCN(CCCC(=O)OC(CCCCCC)CCCCCCC)C(=O)SCCN(C)C (centres unmarked) [ATX-0058] | 86 percentage | 5.95 | substantially more effective than ATX-002 | no impact | – | –
CCCCCC/C=C\COC(=O)CN(CC(=O)OC(CCCCCCCC)CCCCCCCC)C(=O)SCCN(C)C [ATX-0061] | 0 percentage | 5.13 | – | −0.90 | – | –
CCCCCC/C=C\COC(=O)CN(CC(=O)OC(CCCCC)CCCCC)C(=O)SCCN(C)C [ATX-0063] | 0 percentage | 5.39 | – | −0.7 | – | –
CCCCCC/C=C\COC(=O)CN(CC(=O)OC(CCCCCCC)CCCCCCCC)C(=O)SCCN(C)C (centres unmarked) [ATX-0064] | 0 percentage | 5.14 | – | −0.90 | – | –
CCCCCC/C=C\COC(=O)CCCN(CCCC(=O)OC(CCCCCCC)CCCCCCC)C(=O)SCCN(C)C [ATX-0081] | 93 percentage | 6.04 | – | – | substantial improvement over ATX-0002 | –
CCCCCC/C=C\COC(=O)CCCCCN(CCC(=O)OC(CCCCCCC)CCCCCCC)C(=O)SCCN(C)C [ATX-0082] | – | – | – | – | substantial improvement over ATX-0002 | –
CCCCCC/C=C\COC(=O)CCCCCN(CCCC(=O)OC(CCCCCCC)CCCCCCC)C(=O)SCCN(C)C [ATX-0083] | 65 percentage | 5.98 | – | – | substantial improvement over ATX-0002 | –
CCCCCC/C=C\COC(=O)CCCCCN(CCCCCC(=O)OC(CCCCCC)CCCCCC)C(=O)SCCN(C)C [ATX-0084] | 68 percentage | 6.11 | – | – | substantial improvement over ATX-0002 | –
CCCCCC/C=C\COC(=O)CCCN(CCCC(=O)OC(CCCCCC)CCCCCC)C(=O)SCCN(C)C [ATX-0086] | 13 percentage | 6.05 | – | – | substantial improvement over ATX-0002 | –
CCCCCC/C=C\COC(=O)CCCN(CCCC(=O)OC(CCCCCCCC)CCCCCCCC)C(=O)SCCN(C)C [ATX-0087] | – | – | – | – | substantial improvement over ATX-0002 | –
CCCCCC/C=C\COC(=O)CCCCCCCN(CCCCCCCC(=O)OC(CCCCCC)CCCCCC)C(=O)SCCN(C)C [ATX-0093] | 70 percentage | 5.79 | – | – | – | –
CCCCCC/C=C\COC(=O)CCCCCCCN(CCCCCCCC(=O)OC(CCCCCCCC)CCCCCCCC)C(=O)SCCN(C)C [ATX-0096] | 40 percentage | 5.59 | – | – | – | –
CCCCCC/C=C\COC(=O)CCCCCCCN(CCCCCCCC(=O)OC(CCCCCCC)CCCCCCC)C(=O)SCCN(C)C [ATX-0097] | 71 percentage | 5.89 | – | – | – | –
CCCCCCCC(CCCCCCC)OC(=O)CN(CC(=O)OC(CCCCCCC)CCCCCCC)C(=O)SCCCN(CC)CC [ATX-0134] | 25 percentage | 5.62 | – | – | – | –
CCCCCC(CCCCC)OC(=O)CN(CC(=O)OC(CCCCC)CCCCC)C(=O)SCCCN(C)C [drawing 51] | 0 percentage | 6.28 | – | – | – | 6.17
CCCCCC(CCCCC)OC(=O)CN(CC(=O)OC(CCCCC)CCCCC)C(=O)SCCCN(C)C [drawing 52] | 0 percentage | – | – | – | – | 6.28 and 6.17
CCCCCC/C=C\COC(=O)CCCN(CCCC(=O)OC(CCCCCCCC)CCCCCCCC)C(=O)SCCN(C)C [drawing 76] | 80 percentage | 6.06 | – | – | – | –
CCCCCC/C=C\COC(=O)CCCCCN(CCC(=O)OC(CCCCCCC)CCCCCCC)C(=O)SCCN(C)C [drawing 82] | 43 percentage | 5.77 | – | – | – | –
